Laboratory results taken from patent US11435345B2, “Detection and treatment of demyelinating diseases” (MATN SCIENTIFIC LIMITED, priority 2016, dated 2022).
Entries after “also recorded” stand apart in the source; their conditions may differ. No end group written: not given here.

Columns and labels:
[1] = system: multiple sclerosis patients; conditions: MS patients; cited from earlier work
[2] = system: antibody that binds to the oligopeptide in serum samples; assay: ELISA assay of serum antibody that binds to biotinylated oligopeptides immobilised on streptavidin plates; type: binding, human; conditions: pH 7.4, female subjects, FIG. 2
From the text: Six exemplary oligopeptides of the invention (each 17 amino-acids long, with biotinylated N-terminus) were used to prepare ELISA assays for studying antibody levels in patient samples. The oligopeptides were synthesised by K J Ross-Petersen ApS (Copenhagen, Denmark) and provided in lyophilized form. General serum diluent was purchased from Immunochemistry Technologies LLC (Minnesota, USA). Streptavidin coated 96-Well microplates were purchased from Eagle Biosciences (New Hampshire, USA) and the oligopeptides were applied to individual wells of the streptavidin plates as described below.
Sample preparation: Following obtaining informed consent, a 5 ml venous blood sample was withdrawn from each individual participating in this study. Samples were centrifuged for 10 minutes at 3000 RPM. Serum was then transferred into a clean plastic vial and the remainder was discarded. Serum was then diluted in general serum diluent (200 μl/mL), labelled accordingly and stored at −20° C. […]
ELISA protocol: Typical ELISA protocol was followed for quantifying antibodies present in serum. […] The plate was shaken for 5 seconds at 250 RPM and absorbance was measured using plate reader at wavelength 450 nm and 630 nm filter. Elisys Uno fully automated ELISA analyser (HUMAN company, Wiesbaden, Germany) was used to read the measurements. […]

C57BL/6 mice [3] = assay: Disease induction with antigen and adjuvant in combination with Pertussis toxin; type: in vivo, mouse; conditions: for severity of muscle weakness compared between antigens / grade of plaques compared to control animals: mice; for grade of plaques compared to control animals: mid brain section, antigen + adjuvant + pertussis, FIG. 8
Protocol: (§1) Male (n=16) and female (n=16) C57BL/6 mice, weighing between 16-18 g, were purchased from Royan institute (Tehran, Iran). MS induction study started when mice reached 6-8 weeks of age. Similar investigations were carried chick and guinea pig (data not shown). All procedures were performed aseptically and under supervision of Gandhi Hospital medical ethics committee (Tehran, Iran). Freund's complete adjuvant and Pertussis toxin purchased from Sigma-Aldrich (Dorset, UK).
At day 1 and day 2, 250 μg of antigen (oligopeptides of the invention) diluted in 150 μl of saline combined with 150 μl of adjuvant was injected intra-dermally into alcohol wiped back of each mouse. Following the injection of antigens, 400 ng Pertussis toxin diluted in 300 μl distilled water was injected intraperitoneally. Two control groups received either 150 μl distilled water in 150 μl of adjuvant or 400 ng Pertussis toxin diluted in 300 μl distilled water. The animals were kept in standard housing condition with appropriate temperature and humidity as well as adequate supplies of food and fresh water.
(§2) After scarifying mice by anaesthesia overdose at day 15 of injection, their brain was dissected out and fixed in 10% Formalin for histological analysis. The fixed samples were subsequently cut horizontally and processed to produce 5-micron thin paraffin sections, which then were stained with Haematoxylin and eosin (H&E), Glial fibrillary acidic protein (GFAP), CD-68 and Luxol fast blue (LFB). Various sections of the brain were then analyzed and imaged using a bright-field microscope (Optika B-383PL, Bergamo, Italy). Grade of plaque formation was defined as number of plaques measured in mid brain section as follow: […]
The effect of injected oligopeptide antigens of the invention on muscular function was tested by measuring animal fall time from inverted cage and ring. These tests follow the format of commonly used functional muscle evaluation tests in mice that use “wire hanging” behavioral tests wherein latency to fall after being suspended from a substrate is quantified to give a measure of muscular function.

chicks = assay: MS induction in chicks with antigens combined with pertussis and adjuvant; type: in vivo, chick; conditions: 1 mg antigen per 70 g body weight
Protocol: As a preliminary examination of our proposed treatment method, we induced MS in chicks by injecting antigens P, F, E and A (corresponding to SEQ ID NOs: 20, 21, 22 and 23) combined with pertussis and adjuvant. The dosage was 1 mg antigen per 70 g body weight. The main reason we chose this animal was to be able to easily visualize the walking impairment as they are bipedal like humans (compared to quadrupedal rodents). Initial symptoms were seen 12 days after antigen injection.

C57BL/6 mice [4] = assay: Disease induction with antigen and adjuvant without Pertussis toxin; type: in vivo, mouse; conditions: for grade of plaque formation: mid brain section, day 15, without Pertussis, FIG. 12
Protocol: as §1
C57BL/6 mice were injected with adjuvant and antigens (oligopeptides of the invention) at day 0 and 5. Control group received the injection of only adjuvant in distilled water.
as §2

[5] = fall from inverted cage and ring

Substance	grade of plaques compared to control animals (C57BL/6 mice [3])	balance compared to controls (chicks)	time to initial symptoms after antigen injection (chicks) [days]	weight compared to controls (chicks)	other results
Glatiramer acetate [Copaxone]	–	–	–	–	fewer relapses than patients taking placebo [1]: about 30%
MPRTQENAHSLERCWL [antigen H, MPRTQENAHSLERCWL]	–	–	–	–	differences between healthy female patients (HF) and female patients with MS (FMS) in the levels of antibody that bind to the oligopeptide [2]: significant for each exemplary oligopeptide besides H and S
RDSANIYHADSLKGRFT (Oligopeptide motif) [antigen A]	significantly higher	lack of balance	12	Significant weight loss	severity of muscle weakness compared between antigens (C57BL/6 mice [3]; [5]): less than those injected with oligopeptide antigen P; also recorded: considerably less effect than oligopeptide antigens E and F
RGSRGQHQAHSLERVCH (Oligopeptide motif) [antigen P]	–	lack of balance	12	Significant weight loss	severity of muscle weakness compared between antigens (C57BL/6 mice [3]; [5]): considerably less effect than oligopeptide antigens E and F
RHSDEHHHDDSLPHPQQ (Oligopeptide motif) [antigen E]	significantly higher	lack of balance	12	Significant weight loss	muscle weakness in female mice (C57BL/6 mice [3]; female mice, fall from inverted cage and ring): most pronounced muscle weakness; grade of plaque formation (C57BL/6 mice [4]; female mice): 9 (24-27); induction of MS in females (C57BL/6 mice [4]; females): major inducer of MS in females
RLTLSPEQAHSLILQHL [antigen S, RLTLSPEQAHSLILQHL]	–	–	–	–	differences between healthy female patients (HF) and female patients with MS (FMS) in the levels of antibody that bind to the oligopeptide [2]: significant for each exemplary oligopeptide besides H and S
RVPGCAHHADSLYTYPV (Oligopeptide motif) [antigen F]	significantly higher	lack of balance	12	Significant weight loss	muscle weakness in male mice (C57BL/6 mice [3]; male mice, fall from inverted cage and ring): most pronounced muscle weakness; grade of plaque formation (C57BL/6 mice [4]; male mice): 7 (18-21); induction of MS in males (C57BL/6 mice [4]; males): major inducer of MS in males
